We go through two molecules from patent US20180353460A1, “METHODS OF TREATING UROLOGICAL DISORDERS USING SARMs” (priority 2014, published 2018).

“Also recorded” adds a separate entry of the source.

Series [1] in a line: Serum drug concentration by LC-MS/MS in ovariectomized mice. Conditions: female, mouse, oral, 28 days. The format is in vivo. The protocol: (§1) Six to eight week old female mice (n=5-7) purchased from JAX® Mice were ovariectomized (OVX) or sham operated. Twenty days after OVX, treatment was initiated as outlined in the table below. Compounds of Formulas IX and VIII were dissolved in DSMO/PEG 300 (15:85) and were administered by oral gavage. Body weight and MRI measurements, to evaluate total body lean mass, were recorded at the beginning and at the end of the treatment. The animals were treated for twenty-eight days and then sacrificed, pelvic floor muscles isolated, weighed and stored for RNA and protein extraction. The expression of genes involved in catabolism and anabolism of muscle was measured by mRNA analysis. The serum concentrations of the drugs were measured by LC-MS/MS. The statistical analysis was performed using JMP Pro® software utilizing one way analysis of variance.
After samples were thawed, a 100 μL aliquot of mouse serum from each sample was mixed with 200 μL acetonitrile containing 200 nM compound of Formula XIII as the internal standard. After each sample was thoroughly vortex for 15 seconds, the sample was centrifuged at 3000 rpm for 10 min. Approximately 200 μL supernatant was transferred for LC-MS/MS analysis
Stock solutions of compounds of Formulas IX and VIII were 100 μM in DMSO. A dilution of 1:50 with control mouse serum was made and 200 μL of 2 μM was added to the first micro centrifuge tube. […] Transferred 100 μL from tube 1 (2 μM) to tube 2, vortexed and continued the 2 fold dilution through tube 7. 200 μL of acetonitrile containing 200 nM compound of Formula XIII as the internal standard was added to each tube. After vortexing and centrifuging, 200 μL was transferred to LC-MS/MS analysis. The concentration of each standard curve ranged from 1 μM to 0.0078 μM.
The analysis of compounds of Formulas IX and VIII in serum was performed using LC-MS/MS system consisting of Agilent 1100 HPLC with an MDS/Sciex 4000 Q-Trap™ mass spectrometer. The separation was achieved using a C18 analytical column (Alltima™, 2.1×100 mm, 3 μm) protected by a C18 guard column (Phenomenex™ 4.6 mm ID cartridge with holder). Mobile phase was consisting of channel A (95% acetonitrile+5% water+0.1% formic acid) and channel C (95% water+5% acetonitrile+0.1% formic acid) and was delivered isocratically at a flow rate of 0.4 mL/min. The total runtime for compound of Formula IX was 4.5 min, and the volume injected was 10 μL. The total runtime for compound of Formula VIII was also 4.5 min, and the volume injected was 10.0 μL. Multiple reaction monitoring (MRM) scans were made with curtain gas at 30 for compound of Formula IX, 25 for compound of Formula VIII; collision gas at medium for compound of Formula IX, high for compound of Formula VIII; nebulizer gas and auxiliary gases at 60 and source temperature at 550° C. for both. Molecular ions were formed using an ion spray voltage (IS) of 4200 V (negative mode). Declustering potential (DP), entrance potential (EP), collision energy (CE), product ion mass, and cell exit potential (CXP) were optimized with the values of −20.0, −10.0, −30.0, and −15.0, respectively, for the mass pair 388.1/118.1 (compound of Formula IX). Declustering potential (DP), entrance potential (EP), collision energy (CE), product ion mass, and cell exit potential (CXP) were optimized with the values of −95.9, −9.94, −40.0, and −15.0, respectively, for the mass pair 354.0/118.1 (compound of Formula VIII).
Animals were sacrificed 24 h after the last dose to measure the steady state concentration.

The test system of a further series is pelvic floor muscles. The series is described as follows: Pelvic floor muscle weight, body weight, lean mass and histology in ovariectomized female mice. It counts as in vivo, mouse. To be noted: OVX mice, 0.5-5 mg/kg/day p.o., 28 days; for pelvic floor muscle weight (cumulative COC, Pc and IL): vs OVX animals. The protocol:
as §1
Pelvic floor muscles were paraffin embedded and sections were stained for collagen (Mason trichrome) and elastin (Van Gieson). Stains were evaluated by a pathologist for fiber length and stain intensity.
The pelvic floor muscles in mice are small making the unmagnified visualization difficult. In order to improve the resolution, the pelvic regions of the mice were immersed in formalin for two days after sacrifice before dissecting them under microscope along with precise weight measurement. The COC, Pc, and IL were isolated and weighed using a microbalance that has a resolution as low as a microgram.
Six to eight week old female mice (n=6-8/group) were ovariectomized (OVX) or sham operated. One month after OVX, when the serum hormone levels were at trough, body composition was measured by MRI and treatment was initiated with vehicle or a dose response of one of two SARMs. Twenty eight days after treatment initiation, body composition was again measured, animals were sacrificed, and pelvic floor muscles were weighed. Serum drug concentrations were measured by LC-MS/MS. Muscle sections were stained for collagen and elastin to evaluate the effect of SARMs on architecture. Data were analyzed by One Way ANOVA followed by Tukey test.

Take `C[C@](O)(COc1ccc(C#N)cc1)C(=O)Nc1ccc(C#N)c(Cl)c1` [VIII, (S)—N-(3-Chloro-4-cyanophenyl)-3-(4-cyanophenoxy)-2-hydroxy-2-methylpropanamide]: the figures for the concentration at 24 h after the last dose in series [1] (0.5 mpk p.o.), in series [1] (2.5 mpk p.o.) and in series [1] (5 mpk p.o.) were 0.429 µM, 2.44 µM and 4.1 µM, respectively. Moreover, the “total lean body mass by MRI” value in the series on pelvic floor muscles was “more potent than Compound IX in increasing lean mass”. Besides, in the series with pelvic floor muscles, the “pelvic floor muscle weight (cumulative COC, Pc and IL)” value is “performed better than compound of Formula IX in increasing the muscle weights; also recorded: increase the weight of pelvic floor muscles”. Further, in the series with pelvic floor muscles (vs OVX controls), the “coccygeus (COC) muscle weight” value is “more potent than Compound IX”.

For `C[C@](O)(COc1ccc(C#N)cc1)C(=O)Nc1ccc(C#N)c(C(F)(F)F)c1` [Compound IX, (S)—N-(4-Cyano-3-(trifluoromethyl)phenyl)-3-(4-cyanophenoxy)-2-hydroxy-2-methylpropanamide], the concentration at 24 h after the last dose in series [1] (0.5 mpk p.o.) was found to be 0.862 µM; in series [1] (2.5 mpk p.o.) it was 3.85 µM; in series [1] (5 mpk p.o.), 6.07 µM. The “pelvic floor muscle weight (cumulative COC, Pc and IL)” value in the series on pelvic floor muscles is “increase the weight of pelvic floor muscles”.
